Data from paper PMC9311154 (British Journal of Clinical Pharmacology, 2022).

Tests used:
Safety and tolerability = assay type: in vivo, human; details: midazolam alone
CYP3A4 = CYP3A4 (Homo sapiens, UniProt P08684); assay: Midazolam interaction study; assay type: in vivo; details: for AUC ratio day 1/day−1, point estimate geometric LS means (geometric 90% CI) / AUC ratio day 10/day−1, point estimate geometric LS means (geometric 90% CI): ANOVA
[1] = BAY 2433334 25 mg treatment sequence
[2] = BAY 2433334 75 mg treatment sequence
[3] = BAY 2433334 25 mg OD + Midazolam
[4] = BAY 2433334 75 mg OD + Midazolam
[5] = day 1, coadministration of BAY 2433334 25 mg
[6] = day 1, coadministration of BAY 2433334 75 mg
[7] = day 10, BAY 2433334 25 mg once daily

Chain of CYP3A4 (P08684 whole entry): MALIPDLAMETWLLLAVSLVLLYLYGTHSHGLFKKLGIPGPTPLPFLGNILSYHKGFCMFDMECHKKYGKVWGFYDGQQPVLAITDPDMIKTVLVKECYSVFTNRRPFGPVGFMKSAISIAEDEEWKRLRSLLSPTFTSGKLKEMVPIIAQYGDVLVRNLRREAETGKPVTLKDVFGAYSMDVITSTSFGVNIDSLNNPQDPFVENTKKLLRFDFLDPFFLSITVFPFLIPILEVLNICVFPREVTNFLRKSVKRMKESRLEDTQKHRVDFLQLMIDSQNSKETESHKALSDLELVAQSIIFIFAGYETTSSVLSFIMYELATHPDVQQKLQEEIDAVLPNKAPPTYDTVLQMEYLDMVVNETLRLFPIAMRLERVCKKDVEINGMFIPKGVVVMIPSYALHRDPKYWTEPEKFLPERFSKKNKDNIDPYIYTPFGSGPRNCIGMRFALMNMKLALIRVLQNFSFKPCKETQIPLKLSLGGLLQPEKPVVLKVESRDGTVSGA

With Cc1ncc2n1-c1ccc(Cl)cc1C(c1ccccc1F)=NC2 [Midazolam, midazolam] the “Adverse event(s) of special interest” value (Safety and tolerability; [1]) was 0 Number (%), the “Study drug‐related adverse event(s)” value (Safety and tolerability; [1]) was 0 Number (%) and the “Study procedure‐related adverse event(s)” value (Safety and tolerability; [1]) was 3 (12.5%) Number (%). For the same compound, the “Adverse event(s) of special interest” value (Safety and tolerability; [2]) was 0 Number (%), the “Study drug‐related adverse event(s)” value (Safety and tolerability; [2]) was 0 Number (%) and the “Study procedure‐related adverse event(s)” value (Safety and tolerability; [2]) was 1 (4.2%) Number (%). The “AUC ratio day 1/day−1, point estimate geometric LS means (geometric 90% CI)” value (CYP3A4; [3]) was 1.0415 (0.9659–1.1230), the “AUC ratio day 10/day−1, point estimate geometric LS means (geometric 90% CI)” value (CYP3A4; [3]) was 1.0630 (0.9859–1.1461) and the “AUC ratio day 1/day−1, point estimate geometric LS means (geometric 90% CI)” value (CYP3A4; [4]) was 1.0451 (0.9785–1.1164). For the same compound, the “AUC ratio day 10/day−1, point estimate geometric LS means (geometric 90% CI)” value (CYP3A4; [4]) was 1.1736 (1.0963–1.2564), the “AUC ratio day 10/day−1, point estimate geometric LS means (geometric 90% CI)” value (CYP3A4; BAY 2433334 75 mg OD + Midazolam, listed as midazolam) was 1.1736 [1.0963–1.2564] and the “increase in the AUC” value (CYP3A4; [5]) was 4.2%. For the same compound, the “increase in the AUC” value (CYP3A4; [6]) was 4.5%, the “increase in the AUC” value (CYP3A4; [7]) was 6.3% and the “increase in the AUC” value (CYP3A4; day 10, pre‐ and coadministration of BAY 2433334 75 mg) was 17%. For the same compound, the half-life (CYP3A4; human, plasma, oral, 7.5 mg, t1/2, Day −1, midazolam 7.5 mg alone, BAY 2433334 75 mg OD group, median (range), geometric mean not calculated) was 287 min, the tmax (CYP3A4; human, plasma, oral, 7.5 mg, tmax, Day −1, midazolam 7.5 mg alone, BAY 2433334 25 mg OD group, median (range)) was 35 min and the tmax (CYP3A4; human, plasma, oral, 7.5 mg, tmax, Day −1, midazolam 7.5 mg alone, BAY 2433334 75 mg OD group, median (range)) was 45 min. It also gave a tmax (CYP3A4; human, plasma, oral, tmax, Day 1, midazolam 7.5 mg with BAY 2433334 25 mg OD, median (range)) of 44.5 min, a tmax (CYP3A4; human, plasma, oral, tmax, Day 1, midazolam 7.5 mg with BAY 2433334 75 mg OD, median (range)) of 45 min and a tmax (CYP3A4; human, plasma, oral, tmax, Day 10, midazolam 7.5 mg with BAY 2433334 25 mg OD, median (range)) of 45 min. It also gave a tmax (CYP3A4; human, plasma, oral, tmax, Day 10, midazolam 7.5 mg with BAY 2433334 75 mg OD, median (range)) of 45 min.

For OCc1ncc2n1-c1ccc(Cl)cc1C(c1ccccc1F)=NC2 [α‐Hydroxymidazolam, α‐hydroxymidazolam], the “AUC ratio day 1/day−1, point estimate geometric LS means (geometric 90% CI)” value (CYP3A4; [3]) was 1.0650 (0.9661–1.1741), the “AUC ratio day 10/day−1, point estimate geometric LS means (geometric 90% CI)” value (CYP3A4; [3]) was 1.0560 (0.9595–1.1622) and the “AUC ratio day 1/day−1, point estimate geometric LS means (geometric 90% CI)” value (CYP3A4; [4]) was 0.9856 (0.9206–1.0551). For the same compound, the “AUC ratio day 10/day−1, point estimate geometric LS means (geometric 90% CI)” value (CYP3A4; [4]) was 0.9864 (0.9169–1.0612), the “AUC ratio day 10/day−1, point estimate geometric LS means (geometric 90% CI)” value (CYP3A4; BAY 2433334 75 mg OD + Midazolam, listed as α‐hydroxymidazolam) was 0.9864 [0.9169–1.0612] and the tmax (CYP3A4; Day 1, midazolam 7.5 mg with BAY 2433334 25 mg OD, median (range)) was 0.742 (0.500–4.00) h. For the same compound, the tmax (CYP3A4; Day 1, midazolam 7.5 mg with BAY 2433334 75 mg OD, median (range)) was 0.750 (0.483–4.00) h, the tmax (CYP3A4; Day 10, midazolam 7.5 mg with BAY 2433334 25 mg OD, median (range)) was 0.750 (0.483–4.00) h and the tmax (CYP3A4; Day 10, midazolam 7.5 mg with BAY 2433334 75 mg OD, median (range)) was 0.750 (0.483–2.00) h. For the same compound, the tmax (CYP3A4; Day −1, midazolam 7.5 mg alone, BAY 2433334 25 mg OD group, median (range)) was 0.708 (0.483–4.00) h, the tmax (CYP3A4; Day −1, midazolam 7.5 mg alone, BAY 2433334 75 mg OD group, median (range)) was 0.750 (0.500–3.00) h and the “increase in the AUC” value (CYP3A4; [5]) was 4.4%. The “decrease in the AUC” value (CYP3A4; [6]) was 1.5%, the “increase in the AUC” value (CYP3A4; [7]) was 6.0% and the “time to maximum plasma concentrations, range across treatments” value (CYP3A4; with and without BAY 2433334) was 0.583 to 0.750 h.
